The nature of assay [1]: NIH-3T3 fibroblast cytotoxicity, dose response, cytotoxicity control, cell-based, fluorescence, Alamar Blue, secondary assay (AID 2327).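 Further: NIH-3T3 mouse fibroblasts cultured with fluconazole at 8 µg/mL.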 The format is functional.
The test system of assay [2] is BJ. The experiment in a line: cytotoxicity toward BJ-TERT fibroblasts, dose response, cell-based, RAS-independent, luminescence (AID 1933). The class given is functional. Particulars: Homo sapiens.
The test system of assay [3] is BJ. The assay can be described thus: cells. As to conditions: Homo sapiens. The format is functional, cell-based.
Assay [4] in a line: C. albicans growth with fluconazole, confirmation, fluorescence, retest (AID 2467). The format is functional, cell-based.
The target of assay [5] is Luciferin 4-monooxygenase (Photinus pyralis, UniProt P08659). The experiment in a line: firefly luciferase enzyme inhibitors, dose response, biochemical, luminescence (AID 1891).
The nature of assay [6]: Luminescence Cell-Based Dose Confirmation HTS to Identify Inhibitors of Platelet Dense Granule Release. [Related pubchem assays: 1663 (Primary HTS), 1678 (Summary of Project)]. The format is functional.
Assay [7] concerns BJ. The experiment in a line: cytotoxicity toward BJ-TERT-LT-ST fibroblasts, dose response, cell-based, RAS-independent, luminescence (AID 1935).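 Further: BJ fibroblasts immortalized with TERT plus LT and ST oncogenes.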 The format is functional. Particulars: Homo sapiens.
Assay [8] can be described thus: cytotoxicity toward DRD oncogenic fibroblasts, dose response, cell-based, non-viral oncogenic, luminescence (AID 1934). The format is functional. Particulars: Homo sapiens.
A short description of assay [9]: THP-1 cell cytotoxicity, dose response, cytotoxicity control for non-replicating M. tuberculosis project (AID 489025). The class given is functional.
Assay [10] can be described thus: HepG2 cell cytotoxicity, dose response, cytotoxicity control for non-replicating M. tuberculosis project (AID 489018). The class given is functional. Particulars: Mycobacterium tuberculosis.
Assay [11] is described as follows: Vero E6 cell cytotoxicity, dose response, cytotoxicity control for non-replicating M. tuberculosis project, secondary assay (AID 492998). The class given is functional, VeroE6. Particulars: Vero C1008.
For assay [12], the target named is Heat shock protein HSP 90-alpha (Homo sapiens, UniProt P07900). The class given is functional, organism-based.
The target of assay [13] is T1, Insulin-degrading enzyme (Homo sapiens, UniProt P14735).
T1 sequence (P14735 whole entry): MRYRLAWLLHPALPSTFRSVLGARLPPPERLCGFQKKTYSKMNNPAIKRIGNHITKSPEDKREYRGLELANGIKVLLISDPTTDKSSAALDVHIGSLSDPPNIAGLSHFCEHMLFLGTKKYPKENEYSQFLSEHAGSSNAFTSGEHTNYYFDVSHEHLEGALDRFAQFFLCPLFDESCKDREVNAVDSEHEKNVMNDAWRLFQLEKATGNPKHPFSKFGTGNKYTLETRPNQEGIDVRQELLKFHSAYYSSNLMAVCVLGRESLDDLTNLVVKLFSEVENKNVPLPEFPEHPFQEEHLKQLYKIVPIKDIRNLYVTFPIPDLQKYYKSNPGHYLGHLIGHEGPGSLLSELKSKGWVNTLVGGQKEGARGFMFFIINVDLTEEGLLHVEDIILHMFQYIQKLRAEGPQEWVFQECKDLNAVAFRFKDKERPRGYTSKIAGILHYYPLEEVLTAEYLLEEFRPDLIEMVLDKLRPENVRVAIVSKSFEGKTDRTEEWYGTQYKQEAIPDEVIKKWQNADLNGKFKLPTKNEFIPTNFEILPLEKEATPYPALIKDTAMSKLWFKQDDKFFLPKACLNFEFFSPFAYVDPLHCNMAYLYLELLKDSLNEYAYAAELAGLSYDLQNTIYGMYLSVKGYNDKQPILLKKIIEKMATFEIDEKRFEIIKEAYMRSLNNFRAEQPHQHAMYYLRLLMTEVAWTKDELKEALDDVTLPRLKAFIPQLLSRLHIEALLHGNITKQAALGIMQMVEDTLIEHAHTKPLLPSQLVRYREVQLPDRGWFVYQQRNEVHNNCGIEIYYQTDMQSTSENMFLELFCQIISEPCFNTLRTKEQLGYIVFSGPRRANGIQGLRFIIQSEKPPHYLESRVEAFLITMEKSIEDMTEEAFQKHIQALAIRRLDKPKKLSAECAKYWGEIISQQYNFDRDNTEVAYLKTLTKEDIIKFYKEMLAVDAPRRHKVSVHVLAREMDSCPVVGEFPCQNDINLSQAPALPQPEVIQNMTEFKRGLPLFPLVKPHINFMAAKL
The assay can be described thus: activators of recombinant IDE enzyme, dose response, counter-screen for IDE activator project, biochemical, fluorescence polarization (AID 588681).

Assay [14] has as its target T1, Insulin-degrading enzyme. The experiment in a line: activators of endogenous IDE in HEK cells, dose response, cell-based, fluorescence polarization (AID 588439). The class given is functional.
The test system of assay [15] is HEK293. The assay can be described thus: HEK cell cytotoxicity by LDH release, dose response, cytotoxicity control for IDE activator project, fluorescence, HEK cells (AID 588440).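 Further: cytotoxicity by LDH release measuring loss of membrane integrity.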 The format is functional, cell-based. As to conditions: Homo sapiens.
For assay [16], the system named is HEK293. The assay can be described thus: optical interference in Abeta FP readout, dose response, artefact control for IDE activator project, biochemical, fluorescence polarization (AID 588442). As to conditions: Homo sapiens. The class given is functional, cell-based.
The next assay addresses Paired box protein Pax-8 (Homo sapiens, UniProt Q06710). The assay can be described thus: inhibitors of PAX8-driven TPO luciferase reporter, dose response, RMG-I cells, cherry-pick (AID 687027).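 Further: luciferase reporter driven by Pax8 target thyroperoxidase promoter measured by SteadyGlo luminescence.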 The format is functional, cell-based.
Assay [17] can be described thus: A549 cell cytotoxicity, dose response, cytotoxicity control, plate reader, cherry-pick, antagonist series (AID 743412). The class given is functional, cell-based.
A short description of assay [18]: HepG2 cell cytotoxicity, dose response, cytotoxicity control, plate reader, cherry-pick, antagonist series (AID 743416). The format is functional, cell-based.
The nature of assay [19]: LGR2 antagonists, dose response, cell-based, HEK293, CRE-luciferase reporter, cherry pick, set 2 (AID 743343).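 Further: transfected cells were stimulated with diluted bursicon conditioned medium after compound addition.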 The format is functional.
Assay [20] is described as follows: non-specific cell cytotoxicity, dose response, cytotoxicity control for PAX8 inhibitor project, plate reader, dry powder samples (AID 743021). The class given is functional, cell-based.
The nature of assay [21]: MC4R antagonists, dose response, counter-screen for LGR2 antagonist project, cell-based, plate reader, cherry pick (AID 743444).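 Further: transfected HEK 293 cells stimulated with alpha-MSH peptide; potency of inhibitors of the alpha-MSH evoked signal.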 The format is functional.
The nature of assay [22]: HEK293 cell cytotoxicity, dose response, cytotoxicity control, plate reader, cherry-picked samples (AID 743446). The format is functional, cell-based.
Assay [23] deals with Vero. The experiment in a line: host cell cytotoxicity of antiviral hits, dose response, cytotoxicity control for West Nile virus antiviral project, secondary assay (AID 1650). The format is functional. Particulars: Chlorocebus sabaeus.
The nature of assay [24]: THP-1 cell cytotoxicity, dose response, cytotoxicity control for Vif-APOBEC3G degradation inhibitor project, THP-1 cells (AID 1117359). The class given is functional. As to conditions: Human immunodeficiency virus 1, THP-1.
Assay [25] can be described thus: Luminescence Cell-Based Dose Confirmation HTS to Identify Activators of 5'UTR Stem-Loop Driven Alpha-Synuclein mRNA Translation in H4 Neuroglioblastoma Cells. [Related pubchem assays: 1829 (Project Summary), 1814 (Primary HTS)]. The format is functional.
Assay [26] in a line: Luminescence Cell-Based Dose Response HTS to Identify Activators of Luciferase Translation or Activity in H4 […] Cells. [Related pubchem assays: 1829 (Project Summary), 1814 (Primary HTS)]. The format is functional.
The next assay relates to H4. The assay can be described thus: Luminescence Cell-Based Dose Response HTS to Identify Activators of 5'UTR Stem-Loop Driven Prion Protein mRNA Translation in H4 Neuroglioblastoma Cells. [Related pubchem assays: 1829 (Project Summary), 1814 (Primary HTS)]. Particulars: Homo sapiens. The class given is functional.
The nature of assay [27]: inhibitors of intracellular T. cruzi replication, confirmation, NIH3T3 host cells, beta-gal luminescence (AID 2044).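 Further: intracellular parasites grown in NIH/3T3 mouse fibroblasts as host cells; luminescent beta-galactosidase reporter signal from transgenic T. cruzi replicating inside host cells; inhibitors lower the luminescence signal.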 The format is functional, cell-based.
Assay [28] in a line: cytotoxicity toward NIH3T3 fibroblasts, dose response, counter-screen, cell-based, ATP luminescence, mouse fibroblasts (AID 2010).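 Further: cells exposed to compound for about 90 hours before reading.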 The format is functional.
The test system of assay [29] is Vero. The assay can be described thus: cells. The class given is functional. As to conditions: Chlorocebus sabaeus.

SMILES strings stand for the structures. Calls of active or inactive are those of the source.

Sequence of Paired box protein Pax-8 (Q06710 whole entry): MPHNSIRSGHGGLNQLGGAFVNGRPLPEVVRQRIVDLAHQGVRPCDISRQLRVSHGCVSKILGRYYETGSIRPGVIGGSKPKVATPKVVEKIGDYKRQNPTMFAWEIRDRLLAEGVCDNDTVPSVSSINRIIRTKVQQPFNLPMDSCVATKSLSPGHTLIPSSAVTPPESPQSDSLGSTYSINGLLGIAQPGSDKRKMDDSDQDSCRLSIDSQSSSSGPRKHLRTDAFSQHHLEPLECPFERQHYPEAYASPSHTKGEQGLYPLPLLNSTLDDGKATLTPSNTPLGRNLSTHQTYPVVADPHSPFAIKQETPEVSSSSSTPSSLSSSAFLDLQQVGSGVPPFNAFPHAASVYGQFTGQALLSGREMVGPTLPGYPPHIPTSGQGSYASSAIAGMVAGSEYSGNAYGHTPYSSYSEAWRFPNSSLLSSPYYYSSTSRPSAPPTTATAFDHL
Sequence of Luciferin 4-monooxygenase (P08659 whole entry): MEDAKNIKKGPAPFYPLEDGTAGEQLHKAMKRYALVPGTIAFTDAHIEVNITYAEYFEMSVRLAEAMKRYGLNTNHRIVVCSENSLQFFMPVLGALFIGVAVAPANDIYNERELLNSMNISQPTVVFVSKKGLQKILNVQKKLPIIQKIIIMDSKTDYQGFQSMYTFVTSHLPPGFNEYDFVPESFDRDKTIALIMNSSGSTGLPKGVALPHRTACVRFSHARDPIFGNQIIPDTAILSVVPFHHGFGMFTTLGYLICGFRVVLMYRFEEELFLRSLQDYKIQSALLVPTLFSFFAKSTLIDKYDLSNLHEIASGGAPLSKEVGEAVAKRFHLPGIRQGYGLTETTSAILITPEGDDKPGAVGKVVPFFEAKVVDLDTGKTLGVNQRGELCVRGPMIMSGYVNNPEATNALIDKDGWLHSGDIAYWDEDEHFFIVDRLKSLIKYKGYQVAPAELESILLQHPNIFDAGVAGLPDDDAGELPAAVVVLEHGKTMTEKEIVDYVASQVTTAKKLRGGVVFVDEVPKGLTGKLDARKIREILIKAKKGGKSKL

As for `COc1ccc(NC(=O)c2cc([N+](=O)[O-])ccc2O)cc1`, the EC50 in assay [1] is 11.6 µM (active); in the assay on BJ [2], 9.48 µM (active); with BJ [3], 5.17 µM (active); in [4] it was 1.27 µM (active); in assay [5], 0.129 µM (active); in assay [6], 2.15 µM (active). The EC50 with BJ [7] was > 150 µM (inconclusive); in assay [8], 6.2 µM (active); on Insulin-degrading enzyme [13], > 54.7 µM (inactive); at Insulin-degrading enzyme [14], > 54.7 µM (inactive); in the assay on HEK293 [16], > 54.7 µM (inactive). The CC50 is 26.5 µM (active) in assay [9], > 20 µM (active) in assay [10] and > 20 µM (active) in assay [11]. Also, the AC50 in assay [12] is 3.37 µM (active); at Paired box protein Pax-8 it was 5.39 µM (active); in [17], 11.9 µM (active); in [18], 9.22 µM (active); in assay [19] it was 0.784 µM (active); in [20], 12.4 µM (active). In addition, the AC50 in [21] was 0.739 µM (active); in [22], 6.28 µM (active). Further, in the assay on HEK293 [15], the IC50 is > 89.1 µM (inactive).

As for `COC1CC(OC2CCC3(C)C(CCC4C3CCC3(C)C(C5=CC(=O)OC5)C(OC(C)=O)CC43O)C2)OC(C)C1OC1OC(COC2OC(CO)C(O)C(O)C2O)C(O)C(O)C1O` (configuration not stated), the CC50 with Vero [23] is 4.14 µM (active).

In the case of `CNc1ccc(Br)cc(C(=O)/C=C/c2cccc(OC)c2OC)c1=O`, the CC50 in assay [24] was > 40 µM (active).

Regarding `O=C(NN(c1ccccc1)c1ccccc1)c1ccc([N+](=O)[O-])o1`, the EC50 in assay [25] was 44.6 µM (active); in assay [26], > 120 µM (not active); in the assay with H4 it was > 120 µM (not active); in [27], < 0.1 µM (active); in assay [28], > 60 µM (not active); in the assay “cells”, 0.14 µM (active). Moreover, the CC50 in the assay on Vero [29] is 17.4 µM (active).

As to `COc1ccc(CN2CCCC(N3CCN(c4cccc(Cl)c4)CC3)C2)cc1OC` (configuration not stated), the results for the EC50 (in [27]; in assay [28]; in “cells”) were < 0.1 µM (active), > 60 µM (not active) and 0.038 µM (active), respectively.

Take `CC(C)N1C(=O)/C(=C/c2nc3ccccc3c(=O)n2-c2ccccc2)c2ccccc21`: in the assay with Vero [23], the CC50 was 27.3 µM (active). Besides, the EC50 in assay [27] was 0.997 µM (active).

These data come from ChEMBL document CHEMBL1201862, “PubChem BioAssay data set” (2004).
